Assays:
Assay in all cases: relative viability (nuclei count vs DMSO), 5 days (fraction); higher = more cells survive
ChaGo-K-1 = tested on: ChaGo-K-1
Procedure, shortened: (§1)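 Dosing by pin tool came one day after lung cancer cell lines were seeded in 1536-well plates, using either one drug or a fixed anchor-drug dose plus five library-drug doses (not always all listed) in √10 steps. After 5 days, nuclei were counted on 4× images. Relative viability is treated-well nuclei count divided by vehicle-well nuclei count, and values are medians of duplicate plates.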

EMC-BAC-2 = tested on: EMC-BAC-2
Procedure, shortened: as §1

EPLC-272H = tested on: EPLC-272H
Procedure, shortened: as §1

H3255 = tested on: H3255
Procedure, shortened: as §1

HCC-827 = tested on: HCC-827
Procedure, shortened: as §1

LCLC-103H = tested on: LCLC-103H
Procedure, shortened: as §1

LCLC-97TM1 = tested on: LCLC-97TM1
Procedure, shortened: as §1

NCI-H1355 = tested on: NCI-H1355
Procedure, shortened: as §1

NCI-H1395 = tested on: NCI-H1395
Procedure, shortened: as §1

NCI-H1563 = tested on: NCI-H1563
Procedure, shortened: as §1

NCI-H1651 = tested on: NCI-H1651
Procedure, shortened: as §1

NCI-H1793 = tested on: NCI-H1793
Procedure, shortened: as §1

NCI-H1944 = tested on: NCI-H1944
Procedure, shortened: as §1

NCI-H2023 = tested on: NCI-H2023
Procedure, shortened: as §1

NCI-H2085 = tested on: NCI-H2085
Procedure, shortened: as §1

NCI-H2087 = tested on: NCI-H2087
Procedure, shortened: as §1

NCI-H2405 = tested on: NCI-H2405
Procedure, shortened: as §1

NCI-H322M = tested on: NCI-H322M
Procedure, shortened: as §1

NCI-H520 = tested on: NCI-H520
Procedure, shortened: as §1

NCI-H650 = tested on: NCI-H650
Procedure, shortened: as §1

SK-MES-1 = tested on: SK-MES-1
Procedure, shortened: as §1

UMC-11 = tested on: UMC-11
Procedure, shortened: as §1

C=C1C(=O)O[C@@H](CCCCCCCC)[C@@H]1C(=O)O [C-75] + COc1cc2c(Oc3ccc(NC(=O)C4(C(=O)Nc5ccc(F)cc5)CC4)cc3F)ccnc2cc1OCCCN1CCOCC1 [Foretinib] (partner 0.25 µM)
relative viability (ChaGo-K-1; first compound 0.08 µM): 0.915
relative viability (ChaGo-K-1; first compound 0.253 µM): 0.887
relative viability (ChaGo-K-1; first compound 0.8 µM): 0.894
relative viability (ChaGo-K-1; first compound 2.53 µM): 0.925
relative viability (ChaGo-K-1; first compound 8 µM): 0.874
relative viability (EMC-BAC-2; first compound 0.08 µM): 1.02
relative viability (EMC-BAC-2; first compound 0.253 µM): 1.1
relative viability (EMC-BAC-2; first compound 0.8 µM): 0.99
relative viability (EMC-BAC-2; first compound 2.53 µM): 0.904
relative viability (EMC-BAC-2; first compound 8 µM): 1.05
relative viability (EPLC-272H; first compound 0.08 µM): 0.686
relative viability (EPLC-272H; first compound 0.253 µM): 0.936
relative viability (EPLC-272H; first compound 0.8 µM): 0.554
relative viability (EPLC-272H; first compound 2.53 µM): 0.429
relative viability (EPLC-272H; first compound 8 µM): 0.386
relative viability (H3255; first compound 0.08 µM): 0.837
relative viability (H3255; first compound 0.253 µM): 0.927
relative viability (H3255; first compound 0.8 µM): 0.73
relative viability (H3255; first compound 2.53 µM): 0.736
relative viability (H3255; first compound 8 µM): 0.983
relative viability (HCC-827; first compound 0.08 µM): 1.02
relative viability (HCC-827; first compound 0.253 µM): 1.05
relative viability (HCC-827; first compound 0.8 µM): 1.04
relative viability (HCC-827; first compound 2.53 µM): 0.965
relative viability (HCC-827; first compound 8 µM): 0.945
relative viability (LCLC-103H; first compound 0.08 µM): 0.814
relative viability (LCLC-103H; first compound 0.253 µM): 0.736
relative viability (LCLC-103H; first compound 0.8 µM): 0.687
relative viability (LCLC-103H; first compound 2.53 µM): 0.598
relative viability (LCLC-103H; first compound 8 µM): 0.743
relative viability (LCLC-97TM1; first compound 0.08 µM): 0.934
relative viability (LCLC-97TM1; first compound 0.253 µM): 1.01
relative viability (LCLC-97TM1; first compound 0.8 µM): 0.951
relative viability (LCLC-97TM1; first compound 2.53 µM): 0.847
relative viability (LCLC-97TM1; first compound 8 µM): 0.926
relative viability (NCI-H1355; first compound 0.08 µM): 0.948
relative viability (NCI-H1355; first compound 0.253 µM): 0.892
relative viability (NCI-H1355; first compound 0.8 µM): 0.972
relative viability (NCI-H1355; first compound 2.53 µM): 0.927
relative viability (NCI-H1355; first compound 8 µM): 0.958
relative viability (NCI-H1395; first compound 0.08 µM): 0.894
relative viability (NCI-H1395; first compound 0.253 µM): 1.02
relative viability (NCI-H1395; first compound 0.8 µM): 0.948
relative viability (NCI-H1395; first compound 2.53 µM): 1.03
relative viability (NCI-H1395; first compound 8 µM): 1.13
relative viability (NCI-H1563; first compound 0.08 µM): 0.953
relative viability (NCI-H1563; first compound 0.253 µM): 0.955
relative viability (NCI-H1563; first compound 0.8 µM): 0.883
relative viability (NCI-H1563; first compound 2.53 µM): 0.844
relative viability (NCI-H1563; first compound 8 µM): 0.877
relative viability (NCI-H1651; first compound 0.08 µM): 0.83
relative viability (NCI-H1651; first compound 0.253 µM): 0.944
relative viability (NCI-H1651; first compound 0.8 µM): 0.725
relative viability (NCI-H1651; first compound 2.53 µM): 0.668
relative viability (NCI-H1651; first compound 8 µM): 0.958
relative viability (NCI-H1793; first compound 0.08 µM): 0.572
relative viability (NCI-H1793; first compound 0.253 µM): 0.721
relative viability (NCI-H1793; first compound 0.8 µM): 0.569
relative viability (NCI-H1793; first compound 2.53 µM): 0.46
relative viability (NCI-H1793; first compound 8 µM): 0.658
relative viability (NCI-H1944; first compound 0.08 µM): 0.899
relative viability (NCI-H1944; first compound 0.253 µM): 0.756
relative viability (NCI-H1944; first compound 0.8 µM): 0.829
relative viability (NCI-H1944; first compound 8 µM): 0.834
relative viability (NCI-H2023; first compound 0.08 µM): 0.798
relative viability (NCI-H2023; first compound 0.253 µM): 1.05
relative viability (NCI-H2023; first compound 0.8 µM): 0.714
relative viability (NCI-H2023; first compound 2.53 µM): 0.943
relative viability (NCI-H2023; first compound 8 µM): 1.07
relative viability (NCI-H2085; first compound 0.08 µM): 0.842
relative viability (NCI-H2085; first compound 0.253 µM): 0.879
relative viability (NCI-H2085; first compound 0.8 µM): 0.921
relative viability (NCI-H2085; first compound 2.53 µM): 0.782
relative viability (NCI-H2085; first compound 8 µM): 1.14
relative viability (NCI-H2087; first compound 0.08 µM): 1.15
relative viability (NCI-H2087; first compound 0.253 µM): 1.07
relative viability (NCI-H2087; first compound 0.8 µM): 0.943
relative viability (NCI-H2087; first compound 2.53 µM): 0.725
relative viability (NCI-H2087; first compound 8 µM): 0.891
relative viability (NCI-H2405; first compound 0.08 µM): 1.05
relative viability (NCI-H2405; first compound 0.253 µM): 1
relative viability (NCI-H2405; first compound 0.8 µM): 1.05
relative viability (NCI-H2405; first compound 2.53 µM): 0.882
relative viability (NCI-H2405; first compound 8 µM): 1.05
relative viability (NCI-H322M; first compound 0.08 µM): 0.928
relative viability (NCI-H322M; first compound 0.253 µM): 1.33
relative viability (NCI-H322M; first compound 0.8 µM): 0.839
relative viability (NCI-H322M; first compound 2.53 µM): 0.902
relative viability (NCI-H322M; first compound 8 µM): 0.964
relative viability (NCI-H520; first compound 0.08 µM): 0.728
relative viability (NCI-H520; first compound 0.253 µM): 0.95
relative viability (NCI-H520; first compound 0.8 µM): 0.831
relative viability (NCI-H520; first compound 2.53 µM): 0.909
relative viability (NCI-H520; first compound 8 µM): 0.794
relative viability (NCI-H650; first compound 0.08 µM): 1
relative viability (NCI-H650; first compound 0.253 µM): 0.818
relative viability (NCI-H650; first compound 0.8 µM): 1.04
relative viability (NCI-H650; first compound 2.53 µM): 0.995
relative viability (NCI-H650; first compound 8 µM): 0.993
relative viability (SK-MES-1; first compound 0.08 µM): 1.06
relative viability (SK-MES-1; first compound 0.253 µM): 0.773
relative viability (SK-MES-1; first compound 0.8 µM): 0.978
relative viability (SK-MES-1; first compound 8 µM): 0.925
relative viability (UMC-11; first compound 0.08 µM): 0.99
relative viability (UMC-11; first compound 0.253 µM): 1.04
relative viability (UMC-11; first compound 0.8 µM): 0.978
relative viability (UMC-11; first compound 2.53 µM): 0.681
relative viability (UMC-11; first compound 8 µM): 0.69

From the supplement of paper PMC10307832
